Assay results published in ChEMBL document CHEMBL4619777, “A New Class of Dengue and West Nile Virus Protease Inhibitors with Submicromolar Activity in Reporter Gene DENV-2 Protease and Viral Replication Assays” (J Med Chem, 2020).
Calls of active or inactive are those of the source.

What was measured:
Trypsin [1] = target: T1, Trypsin (Homo sapiens, UniProt P07477+P07478+P35030); test: Inhibition of trypsin (unknown origin) at 50 uM using Boc-Val-Pro-Arg-AMC as substrate preincubated for 15 mins followed by substrate addition and measured for 15 mins by fluorimetric assay relative to control; format: protein assay; conditions: for inhibition at 0.25 h, 50 µM: trypsin (unknown origin), probe Boc-Val-Pro-Arg-AMC; for inhibition (INH): 0.25 h, 50 µM
[2] = Cytotoxicity against human HeLa cells assessed as reduction in cell viability measured after 24 hrs by celltiter-blue assay; format: cell-based
[3] = target: Genome polyprotein (West Nile virus) (UniProt P06935); test: Inhibition of West Nile virus NS2B-NS3 protease expressed in Escherichia coli BL21 lambda (DE3) cells at 50 uM using Abz-Gly-Leu-Lys-Arg-Gly-Gly-3-(NO2)Tyr as substrate preincubated for 15 mins followed by substrate addition measured for 15 mins by fluorimetric analysis relative to control
Chain of Genome polyprotein (West Nile virus) (P06935 whole entry): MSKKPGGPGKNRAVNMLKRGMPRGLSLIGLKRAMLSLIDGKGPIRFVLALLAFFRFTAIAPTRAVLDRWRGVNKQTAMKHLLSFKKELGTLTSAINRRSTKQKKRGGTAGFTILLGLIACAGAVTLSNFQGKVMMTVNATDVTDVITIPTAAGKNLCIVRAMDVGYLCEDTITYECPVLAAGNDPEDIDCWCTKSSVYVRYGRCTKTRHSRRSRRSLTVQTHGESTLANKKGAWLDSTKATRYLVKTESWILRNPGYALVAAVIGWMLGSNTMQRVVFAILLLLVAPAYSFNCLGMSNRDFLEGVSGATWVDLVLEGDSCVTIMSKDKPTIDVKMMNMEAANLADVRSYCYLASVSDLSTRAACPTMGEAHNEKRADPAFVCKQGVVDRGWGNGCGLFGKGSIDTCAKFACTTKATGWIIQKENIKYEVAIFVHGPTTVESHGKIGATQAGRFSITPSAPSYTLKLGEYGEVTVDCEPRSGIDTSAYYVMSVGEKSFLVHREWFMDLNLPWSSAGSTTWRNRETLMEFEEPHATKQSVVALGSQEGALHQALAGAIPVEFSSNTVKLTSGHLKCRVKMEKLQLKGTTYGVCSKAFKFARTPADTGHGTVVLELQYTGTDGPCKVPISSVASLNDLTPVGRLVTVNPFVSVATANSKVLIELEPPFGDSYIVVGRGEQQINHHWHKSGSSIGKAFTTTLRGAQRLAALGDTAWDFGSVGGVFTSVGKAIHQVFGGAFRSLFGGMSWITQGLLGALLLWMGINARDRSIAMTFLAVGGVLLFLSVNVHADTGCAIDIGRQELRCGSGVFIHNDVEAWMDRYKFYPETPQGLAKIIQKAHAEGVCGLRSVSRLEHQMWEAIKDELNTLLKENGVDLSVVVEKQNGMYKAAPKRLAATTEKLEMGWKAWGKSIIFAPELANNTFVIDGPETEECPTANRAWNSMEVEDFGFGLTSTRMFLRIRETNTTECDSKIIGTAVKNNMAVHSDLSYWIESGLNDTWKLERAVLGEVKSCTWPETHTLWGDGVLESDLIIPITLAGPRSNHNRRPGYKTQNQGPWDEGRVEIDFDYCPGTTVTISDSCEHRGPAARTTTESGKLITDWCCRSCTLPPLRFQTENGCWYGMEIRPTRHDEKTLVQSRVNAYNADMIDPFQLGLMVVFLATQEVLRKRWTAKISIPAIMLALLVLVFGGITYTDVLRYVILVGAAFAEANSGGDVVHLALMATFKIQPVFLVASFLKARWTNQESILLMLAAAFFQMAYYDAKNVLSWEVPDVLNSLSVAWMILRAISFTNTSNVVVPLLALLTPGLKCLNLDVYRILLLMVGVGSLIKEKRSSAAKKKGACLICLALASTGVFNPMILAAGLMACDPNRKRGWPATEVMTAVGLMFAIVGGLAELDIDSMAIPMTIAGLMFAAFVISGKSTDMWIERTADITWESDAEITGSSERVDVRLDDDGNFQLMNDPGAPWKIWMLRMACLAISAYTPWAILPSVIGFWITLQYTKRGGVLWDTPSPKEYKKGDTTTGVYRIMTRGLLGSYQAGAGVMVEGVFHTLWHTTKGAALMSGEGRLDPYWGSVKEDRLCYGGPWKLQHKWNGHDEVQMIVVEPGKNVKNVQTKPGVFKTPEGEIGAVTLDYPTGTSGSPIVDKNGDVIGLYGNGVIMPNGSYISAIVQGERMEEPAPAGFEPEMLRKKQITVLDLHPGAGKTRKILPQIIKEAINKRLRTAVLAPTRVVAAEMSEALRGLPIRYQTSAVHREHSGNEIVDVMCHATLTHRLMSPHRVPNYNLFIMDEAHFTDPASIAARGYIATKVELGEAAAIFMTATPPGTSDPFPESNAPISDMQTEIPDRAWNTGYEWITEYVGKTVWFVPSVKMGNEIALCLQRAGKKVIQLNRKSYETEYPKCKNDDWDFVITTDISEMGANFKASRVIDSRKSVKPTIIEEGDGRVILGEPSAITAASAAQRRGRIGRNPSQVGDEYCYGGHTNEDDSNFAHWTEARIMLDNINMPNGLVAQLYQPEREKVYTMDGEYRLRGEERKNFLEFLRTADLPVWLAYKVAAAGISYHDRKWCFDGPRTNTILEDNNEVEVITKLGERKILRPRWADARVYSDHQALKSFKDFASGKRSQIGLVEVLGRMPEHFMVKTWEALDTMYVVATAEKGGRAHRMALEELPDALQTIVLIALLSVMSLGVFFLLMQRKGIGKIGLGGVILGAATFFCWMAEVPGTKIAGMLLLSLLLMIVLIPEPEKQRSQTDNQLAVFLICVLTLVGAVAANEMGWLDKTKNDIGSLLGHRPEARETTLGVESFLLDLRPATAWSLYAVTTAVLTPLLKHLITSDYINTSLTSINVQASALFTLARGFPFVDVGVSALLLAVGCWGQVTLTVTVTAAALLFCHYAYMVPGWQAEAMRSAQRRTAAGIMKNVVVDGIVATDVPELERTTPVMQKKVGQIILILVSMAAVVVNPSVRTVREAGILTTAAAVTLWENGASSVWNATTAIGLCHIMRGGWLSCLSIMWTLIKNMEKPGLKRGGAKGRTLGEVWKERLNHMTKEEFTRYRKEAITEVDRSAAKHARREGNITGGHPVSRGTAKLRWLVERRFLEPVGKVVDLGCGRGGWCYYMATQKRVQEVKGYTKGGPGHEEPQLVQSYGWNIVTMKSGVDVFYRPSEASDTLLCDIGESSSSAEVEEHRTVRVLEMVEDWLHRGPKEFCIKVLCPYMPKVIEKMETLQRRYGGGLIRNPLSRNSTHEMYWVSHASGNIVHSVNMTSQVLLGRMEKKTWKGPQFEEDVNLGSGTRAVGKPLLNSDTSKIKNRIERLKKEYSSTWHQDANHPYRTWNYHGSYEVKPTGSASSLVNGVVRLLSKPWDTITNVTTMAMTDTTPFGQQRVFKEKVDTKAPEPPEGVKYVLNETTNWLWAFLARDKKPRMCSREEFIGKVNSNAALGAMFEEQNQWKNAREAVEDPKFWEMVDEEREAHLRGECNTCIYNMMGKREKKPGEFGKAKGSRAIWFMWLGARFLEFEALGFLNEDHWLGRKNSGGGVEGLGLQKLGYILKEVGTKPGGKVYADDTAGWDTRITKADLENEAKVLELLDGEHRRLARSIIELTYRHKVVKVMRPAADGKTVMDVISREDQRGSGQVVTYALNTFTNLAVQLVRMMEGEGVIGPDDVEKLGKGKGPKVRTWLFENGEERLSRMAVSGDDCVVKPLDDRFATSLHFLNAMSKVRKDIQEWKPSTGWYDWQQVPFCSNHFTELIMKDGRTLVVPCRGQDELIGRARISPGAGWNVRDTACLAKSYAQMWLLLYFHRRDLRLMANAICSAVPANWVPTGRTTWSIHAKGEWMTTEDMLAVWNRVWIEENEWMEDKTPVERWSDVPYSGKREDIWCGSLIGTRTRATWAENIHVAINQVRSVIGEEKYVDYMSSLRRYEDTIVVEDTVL

Prothrombin = Prothrombin (Homo sapiens, UniProt P00734); test: Inhibition of thrombin (unknown origin) at 25 uM using Boc-Val-Pro-Arg-AMC as substrate preincubated for 15 mins followed by substrate addition and measured for 15 mins by fluorimetric assay; conditions: 0.25 h
[4] = target: Genome polyprotein (dengue virus type 2) (UniProt P29990); test: Inhibition of Dengue virus serotype 2 NS2B-NS3 protease expressed in Escherichia coli BL21 lambda (DE3) cells at 50 uM using Abz-Nle-Lys-Arg-Arg-Ser-3-(NO2)Tyr as substrate preincubated for 15 mins followed by substrate addition and measured for 15 mins by FRET assay relative to control
[5] = target: Genome polyprotein (dengue virus type 2) (UniProt P29990); test: Inhibition of Dengue virus serotype 2 NS2B-NS3 protease transfected in human HeLa cells at 12.5 uM measured after 24 hrs by Renilla-luciferase reporter gene assay relative to control; format: cell-based
Trypsin [6] = target: T1, Trypsin; test: Inhibition of trypsin (unknown origin) using Boc-Val-Pro-Arg-AMC as substrate preincubated for 15 mins followed by substrate addition and measured for 15 mins by fluorimetric assay; format: protein assay
[7] = Permeability of the compound assessed as drug level in acceptor plate at 200 uM measured after 5 hrs at pH 7.4 by PAMPA; format: ADME; conditions: pH 7.4, 5 h
Huh-7 = test: Cytotoxicity against human HuH7 cells assessed as reduction in cell viability at 12 uM measured after 48 hrs by celltiter-blue assay; format: cell-based; conditions: huh-7, 48 h
dengue virus type 2 [8] = test: Antiviral activity against DENV2 infected in human HuH7 cells assessed as reduction in virus titer at 10 uM measured after 48 hrs relative to control; format: functional; conditions: Huh-7, 48 h
Genome polyprotein [9] = target: T2, Genome polyprotein (dengue virus type 2, UniProt P29990); test: Inhibition of Dengue virus serotype 2 NS2B-NS3 protease transfected in human HeLa cells measured after 24 hrs by Renilla-luciferase reporter gene assay; format: cell-based
Genome polyprotein [10] = target: T3, Genome polyprotein (West Nile virus, UniProt P06935); test: Inhibition of West Nile virus NS2B-NS3 protease expressed in Escherichia coli BL21 lambda (DE3) cells using Abz-Gly-Leu-Lys-Arg-Gly-Gly-3-(NO2)Tyr as substrate preincubated for 15 mins followed by substrate addition measured for 15 mins by fluorimetric analysis
T3 sequence (P06935 1371-1501 limits assumed): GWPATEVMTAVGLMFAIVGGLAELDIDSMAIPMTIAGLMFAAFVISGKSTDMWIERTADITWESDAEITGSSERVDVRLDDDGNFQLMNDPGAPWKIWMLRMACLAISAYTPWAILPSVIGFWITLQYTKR
T3 sequence (P06935 1502-2120 limits assumed): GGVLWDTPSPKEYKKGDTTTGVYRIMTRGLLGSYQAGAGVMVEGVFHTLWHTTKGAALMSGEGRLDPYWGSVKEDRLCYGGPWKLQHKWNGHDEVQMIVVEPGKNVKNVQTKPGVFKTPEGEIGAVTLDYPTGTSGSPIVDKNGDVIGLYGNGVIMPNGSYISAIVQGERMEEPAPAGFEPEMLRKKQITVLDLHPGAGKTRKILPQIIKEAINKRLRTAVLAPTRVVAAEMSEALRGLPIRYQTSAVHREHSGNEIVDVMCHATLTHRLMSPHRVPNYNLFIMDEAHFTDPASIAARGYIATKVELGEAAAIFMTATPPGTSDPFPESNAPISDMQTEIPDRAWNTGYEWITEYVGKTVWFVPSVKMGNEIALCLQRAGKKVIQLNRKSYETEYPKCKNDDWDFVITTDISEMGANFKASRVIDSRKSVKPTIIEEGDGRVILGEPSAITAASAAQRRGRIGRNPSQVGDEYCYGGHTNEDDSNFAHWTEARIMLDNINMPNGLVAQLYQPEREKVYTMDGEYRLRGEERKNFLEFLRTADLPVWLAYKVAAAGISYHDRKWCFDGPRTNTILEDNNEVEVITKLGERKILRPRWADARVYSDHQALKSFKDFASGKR

[11] = Permeability of the compound assessed as drug level in donor plate at 200 uM measured after 5 hrs at pH 7.4 by PAMPA; format: ADME; conditions: pH 7.4, 5 h
[12] = Permeability of the compound assessed as mass retention at 200 uM measured after 5 hrs at pH 7.4 by PAMPA; format: ADME; conditions: pH 7.4, 5 h
Genome polyprotein [13] = target: T2, Genome polyprotein; test: Inhibition of Dengue virus serotype 2 NS2B-NS3 protease expressed in Escherichia coli BL21 lambda (DE3) cells using Abz-Nle-Lys-Arg-Arg-Ser-3-(NO2)Tyr as substrate preincubated for 15 mins followed by substrate addition and measured for 15 mins by FRET assay
[14] = Permeability of the compound at 200 uM measured after 5 hrs at pH 7.4 by PAMPA; format: ADME; conditions: read-out: permeability
dengue virus type 2 [15] = test: Antiviral activity against DENV2 infected in human HuH7 cells assessed as reduction in virus titer measured after 48 hrs; format: functional, organism-based; conditions: Huh-7, 48 h
dengue virus type 2 [16] = test: Antiviral activity against DENV2 infected in human HuH7 cells assessed as reduction in virus titer at 12.5 uM measured after 48 hrs relative to control; format: functional; conditions: Huh-7, 48 h
Genome polyprotein [17] = target: T3, Genome polyprotein; test: Inhibition of West Nile virus NS2B-NS3 protease expressed in Escherichia coli BL21 lambda (DE3) cells using Abz-Gly-Leu-Lys-Arg-Gly-Gly-3-(NO2)Tyr as substrate preincubated for 15 mins followed by substrate addition measured after 15 mins by HPLC analysis
Genome polyprotein [18] = target: T2, Genome polyprotein; test: Inhibition of Dengue virus serotype 2 NS2B-NS3 protease expressed in Escherichia coli BL21 lambda (DE3) cells using Abz-Nle-Lys-Arg-Arg-Ser-3-(NO2)Tyr as substrate preincubated for 15 mins followed by substrate addition and measured after 15 mins by HPLC analysis
[19] = target: Genome polyprotein (dengue virus type 2) (UniProt P29990); test: Inhibition of Dengue virus serotype 2 NS2B-NS3 protease expressed in Escherichia coli BL21 lambda (DE3) cells at 50 uM measured after 1 hr in presence of DENV protease inhibitor aprotinin by tryptophan fluorescence quenching method
[20] = target: Genome polyprotein (dengue virus type 2) (UniProt P29990); test: Inhibition of Dengue virus serotype 2 NS2B-NS3 protease expressed in Escherichia coli BL21 lambda (DE3) cells at 50 uM using Abz-Nle-Lys-Arg-Arg-Ser-3-(NO2)Tyr as substrate preincubated for 15 mins followed by substrate addition and measured after 15 mins by HPLC analysis relative to control
[21] = target: Genome polyprotein (West Nile virus) (UniProt P06935); test: Inhibition of West Nile virus NS2B-NS3 protease expressed in Escherichia coli BL21 lambda (DE3) cells at 50 uM using Abz-Gly-Leu-Lys-Arg-Gly-Gly-3-(NO2)Tyr as substrate preincubated for 15 mins followed by substrate addition measured after 15 mins by HPLC analysis relative to control
[22] = target: Genome polyprotein (dengue virus type 2) (UniProt P29990); test: Inhibition of Dengue virus serotype 2 NS2B-NS3 protease expressed in Escherichia coli BL21 lambda (DE3) cells measured after 1 hr by tryptophan fluorescence quenching method
[23] = target: Genome polyprotein (dengue virus type 2) (UniProt P29990); test: Competitive inhibition of Dengue virus serotype 2 NS2B-NS3 protease expressed in Escherichia coli BL21 lambda (DE3) cells using varying levels of Abz-Nle-Lys-Arg-Arg-Ser-3-(NO2)Tyr as substrate by Cheng-Prusoff plot analysis
[24] = target: Genome polyprotein (West Nile virus) (UniProt P06935); test: Competitive inhibition of West Nile virus NS2B-NS3 protease expressed in Escherichia coli BL21 lambda (DE3) cells using varying levels of Abz-Gly-Leu-Lys-Arg-Gly-Gly-3-(NO2)Tyr as substrate by Cheng-Prusoff plot analysis

Row | SMILES | CC50 at 24 h [2] [µM] | inhibition [3] [%] | inhibition (INH) (Prothrombin) | inhibition [4] [%] | inhibition [5] [%] | inhibition (INH) (Trypsin [1]) | Drug uptake [7] [µM] | Activity (Huh-7) | EC50 (Genome polyprotein [9]) [µM] | IC50 (Genome polyprotein [10]) [µM] | Drug uptake [11] [µM] | R% [12] [%] | IC50 (Genome polyprotein [13]) [µM] | Papp at 5 h, 200 µM [14] [×10⁻⁶ cm/s] | inhibition at 12.5 µM (dengue virus type 2 [16]) [%] | other results
1 | CCCCCC(=O)N[C@H](C(=O)NCc1ccc(C(=N)N)cc1)c1ccc(OCc2ccccc2)cc1.O=C(O)C(F)(F)F | > 50 | 39.4 | Not Active | 20.6 | 49.1 | – | – | – | – | – | – | – | – | – | – | inhibition at 0.25 h, 50 µM (Trypsin [1]): > 50%; IC50 (Trypsin [6]): 45 µM
2 | CCCCCCCC(=O)N[C@H](C(=O)NCc1ccc(NC(=N)N)cc1)c1ccc(OCc2ccccc2)cc1.O=C(O)C(F)(F)F | > 50 | 104 | Not Active | 100 | 71.4 | Not Active | 1.5 | Non-Toxic | 0.83 | 11 | 164.5 | 17.3 | 4.8 | 0.3 | – | inhibition at 10 µM (dengue virus type 2 [8]): 57.7%; EC50 (dengue virus type 2 [15]): 7.2 µM
3 | N=C(N)Nc1ccc(CNC(=O)[C@@H](NC(=O)c2ccc(-c3ccccc3)cc2)c2ccc(OCc3ccccc3)cc2)cc1.O=C(O)C(F)(F)F | > 50 | 99.4 | Not Active | 101 | 67 | – | – | – | 7.6 | 7.4 | – | – | 1.8 | – | – | inhibition at 0.25 h, 50 µM (Trypsin [1]): > 50%; IC50 (Trypsin [6]): 31 µM
4 | N=C(N)NCCC[C@H](NC(=O)c1ccccc1)C(=O)N[C@@H](CCCCN)C(=O)N[C@@H](C(N)=O)c1ccc(OCc2ccccc2)cc1 | > 100 | 86.7 | Not Active | – | 40.9 | Not Active | – | Non-Toxic | 16 | 3.9 | – | – | 0.68 | – | 52.3 | Drug uptake ([11]; BLD = below limit of detection): Bld; EC50 (dengue virus type 2 [15]): 8.6 µM
5 | CCCCCC(=O)N[C@@H](C(=O)NCc1ccc(NC(=N)N)cc1)c1ccc(OCc2ccccc2)cc1.O=C(O)C(F)(F)F | > 50 | 34.2 | Not Active | 49.9 | 54.9 | – | – | – | 9.9 | – | – | – | – | – | – | inhibition at 0.25 h, 50 µM (Trypsin [1]): > 50%; IC50 (Trypsin [6]): 44 µM
6 | N=C(N)Nc1ccc(CNC(=O)[C@@H](NC(=O)c2ccc(-c3cccs3)s2)c2ccc(OCc3ccccc3)cc2)cc1.O=C(O)C(F)(F)F | > 50 | – | Not Active | – | 52.6 | Not Active | – | – | 9.3 | – | – | – | – | – | – | IC50 (Genome polyprotein [17]): 6.5 µM; IC50 (Genome polyprotein [18]): 6.3 µM; inhibition [19]: inactive; inhibition [20]: 99.7%; inhibition [21]: 93.6%; inhibition [22]: Dose-dependent effect
7 | CCCCCCC(=O)N[C@H](C(=O)NCc1ccc(NC(=N)N)cc1)c1ccc(OCc2ccccc2)cc1.O=C(O)C(F)(F)F | > 50 | 101 | Not Active | 97.2 | 71 | Not Active | 1.9 | Non-Toxic | 0.52 | 17 | 167.3 | 15.7 | 6.8 | 0.4 | 81 | –
8 | CCCCCC(=O)N[C@H](C(=O)NCc1ccc(CN)cc1)c1ccc(OCc2ccccc2)cc1.O=C(O)C(F)(F)F | 4.8 | 84.8 | Not Active | 94.9 | – | Not Active | – | – | – | 8.2 | – | – | 4.9 | – | – | Ki (Genome polyprotein [13]): 3.8 µM; inhibition [23]: Active
9 | N=C(N)Nc1ccc(CNC(=O)[C@@H](NC(=O)c2ccc(Oc3ccccc3)cc2)c2ccc(OCc3ccccc3)cc2)cc1.O=C(O)C(F)(F)F | > 12.5 | 101 | Not Active | 99.5 | 68.5 | Not Active | 1.2 | Non-Toxic | 3 | 6.2 | 154.5 | 22.4 | 4 | 0.3 | 80.5 | EC50 (dengue virus type 2 [15]): 9.3 µM
10 | N=C(N)Nc1ccc(CNC(=O)[C@@H](NC(=O)Cc2ccc(-c3ccccc3)cc2)c2ccc(OCc3c(Cl)cccc3Cl)cc2)cc1.O=C(O)C(F)(F)F | > 50 | 101 | Not Active | 101 | 31.7 | Not Active | – | – | 39 | 1.2 | – | – | 0.54 | – | – | Ki (Genome polyprotein [10]): 1 µM; Drug uptake ([11]; BLD = below limit of detection): Bld; Ki (Genome polyprotein [13]): 0.46 µM; inhibition [24]: Active; inhibition [23]: Active
11 | N=C(N)Nc1ccc(CNC(=O)[C@@H](NC(=O)c2ccc(OC3CCCCC3)cc2)c2ccc(OCc3ccccc3)cc2)cc1.O=C(O)C(F)(F)F | > 12.5 | 99.7 | Not Active | 98.2 | 70.4 | Not Active | 1.6 | Non-Toxic | 2.2 | 8.3 | 177.4 | 10.8 | 5.9 | 0.3 | 72.6 | –
